Counter-ions that a name gives are not always drawn.

For the test, the target named is T1, mouse semaphorin 3A (Sema3A) (Mus musculus, UniProt O08665).
T1 sequence (O08665 21-772): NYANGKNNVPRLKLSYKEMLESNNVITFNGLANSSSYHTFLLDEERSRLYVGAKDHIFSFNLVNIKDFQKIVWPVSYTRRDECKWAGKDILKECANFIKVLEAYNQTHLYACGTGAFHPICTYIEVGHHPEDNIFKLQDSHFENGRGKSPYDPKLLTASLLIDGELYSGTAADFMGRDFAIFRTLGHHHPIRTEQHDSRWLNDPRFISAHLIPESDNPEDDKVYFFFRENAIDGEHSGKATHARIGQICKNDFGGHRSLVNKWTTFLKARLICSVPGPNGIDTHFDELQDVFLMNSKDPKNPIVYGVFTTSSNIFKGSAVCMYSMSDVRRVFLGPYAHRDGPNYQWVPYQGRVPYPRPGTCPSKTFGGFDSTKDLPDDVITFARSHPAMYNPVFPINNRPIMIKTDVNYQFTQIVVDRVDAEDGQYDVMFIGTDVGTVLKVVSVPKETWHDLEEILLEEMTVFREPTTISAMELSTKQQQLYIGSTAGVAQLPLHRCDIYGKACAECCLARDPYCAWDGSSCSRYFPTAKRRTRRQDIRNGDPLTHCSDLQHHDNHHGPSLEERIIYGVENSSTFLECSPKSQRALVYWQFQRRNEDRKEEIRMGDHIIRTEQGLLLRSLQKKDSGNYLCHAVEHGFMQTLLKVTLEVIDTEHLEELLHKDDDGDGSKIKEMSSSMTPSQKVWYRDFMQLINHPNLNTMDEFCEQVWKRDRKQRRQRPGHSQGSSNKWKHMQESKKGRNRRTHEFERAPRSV
Briefly: Inhibitory activity for the collapse activity caused by Sema3A (growth cone collapse assay, Test 1). The format is cell-based. The note with it: chick embryo dorsal root ganglion, 3 units/mL mouse Sema3A, smaller value = more potent inhibition, read-out: residual ratio (%) of Sema3A activity (collapse assay); for remaining activity at 1 µM: 1 μM test compound; for remaining activity at 3 µM: 3 μM test compound; for remaining activity at 10 µM: 10 μM test compound. The protocol:
Inhibitory Activity for the Collapse Activity Caused by Sema3A
96 well-plate (SUMITOMO BAKELITE CO., LTD.) which was beforehand coated with polylysine was further coated with laminin (10 μL laminin, at room temperature, for 1 hour). To each well was added 100 μL of a medium (F12 medium containing 10% fetal bovine serum, 20 ng/mL NGF, 100 unit/mL penicillin, and 100 μg/mL streptomycin). Dorsal root ganglion harvested from 7-8 day-old chick embryo was inoculated thereto, and the culture medium was cultivated under the condition of 5% CO2 and 37° C. for 16-20 hours. And then, each test compound in various concentrations was added to the medium, each test medium was cultivated for 30 minutes, 3 units/mL mouse semaphorin 3A (Sema3A) was added to each medium, and then each test medium was cultivated for more 30 minutes. Then, glutaraldehyde was added to the medium, in which the final concentration of glutaraldehyde was 1%. The medium was left to stand at room temperature for 15 minutes to make the tissue fragment fixed, and the ratio of the retracted growth cone was measured under a microscope.

On to `Cn1cc(-c2coc3cc(O)c(O)c(C(=O)O)c3c2=O)c(=O)c2cc(O)c(O)cc21` [Example 1, 3-(6,7-Dihydroxy-1-methyl-4-oxo-1,4-dihydroquinolin-3-yl)-6,7-dihydroxy-4-oxo-4H-chromene-5-carboxylic acid], for which the remaining activity at 1 µM is 2% and the remaining activity at 3 µM turned out to be 4.6%.

Take `Cn1cc(-c2coc3cc(O)c(O)c(C(=O)OCc4cn(CC(=O)N[C@@H](CCCNC(=N)N)C(=O)O)nn4)c3c2=O)c(=O)c2cc(O)c(O)cc21` [Example 4, N^2-({4-[({[3-(6,7-Dihydroxy-1-methyl-4-oxo-1,4-dihydroquinolin-3-yl)-6,7-dihydroxy-4-oxo-4H-chromen-5-yl]carbonyl}oxy)methyl]-1H-1,2,3-triazol-1-yl}acetyl)-L-arginine trifluoroacetate]: the remaining activity at 1 µM came out at 6%.

As to `Cn1cc(-c2coc3cc(O)c(O)c(C(=O)N[C@@H](CCC(=O)O)C(=O)O)c3c2=O)c(=O)c2cc(O)c(O)cc21` [Example 5, N-{[3-(6,7-Dihydroxy-1-methyl-4-oxo-1,4-dihydroquinolin-3-yl)-6,7-dihydroxy-4-oxo-4H-chromen-5-yl]carbonyl}-L-glutamic acid], the remaining activity at 1 µM turned out to be 5.1% and the remaining activity at 3 µM was 3.3%.

In the case of `Cc1c(-c2coc3cc(O)c(O)c(C(=O)O)c3c2=O)c(=O)c2cc(O)c(O)cc2n1C` [Example 7, 3-(6,7-Dihydroxy-1,2-dimethyl-4-oxo-1,4-dihydroquinolin-3-yl)-6,7-dihydroxy-4-oxo-4H-chromene-5-carboxylic acid], the remaining activity at 3 µM was under 70% and the remaining activity at 10 µM is under 40%.

As to `Cc1c(-c2coc3cc(O)c(O)c(C(=O)OCc4cn(CC(=O)N[C@@H](CCC(=O)O)C(=O)O)nn4)c3c2=O)c(=O)c2cc(O)c(O)cc2n1C` [Example 8, N-({4-[({[3-(6,7-Dihydroxy-1,2-dimethyl-4-oxo-1,4-dihydroquinolin-3-yl)-6,7-dihydroxy-4-oxo-4H-chromen-5-yl]carbonyl}oxy)methyl]-1H-1,2,3-triazol-1-yl}acetyl)-L-glutamic acid], the remaining activity at 1 µM stood at 27.3% and the remaining activity at 3 µM amounted to 21%.

In the case of `O=C(O)c1c(O)c(O)cc2occ(-c3cc4cc(O)c(O)cc4oc3=O)c(=O)c12` [Example 9, 6,6′,7,7′-Tetrahydroxy-2,4′-dioxo-2H,4′H-3,3′-bichromene-5′-carboxylic acid], the remaining activity at 1 µM worked out at 3.4% and the remaining activity at 3 µM amounted to 7.3%.

In the case of `O=C(O)CC[C@H](NC(=O)Cn1cc(COC(=O)c2c(O)c(O)cc3occ(-c4cc5cc(O)c(O)cc5oc4=O)c(=O)c23)nn1)C(=O)O` [Example 11, N-{[4-({[(6,6′,7,7′-Tetrahydroxy-2,4′-dioxo-2H,4′H-3,3′-bichromen-5′-yl)carbonyl]oxy}methyl)-1H-1,2,3-triazol-1-yl]acetyl}-L-glutamic acid], the remaining activity at 1 µM stood at 7.9%.

For the molecule `N=C(N)NCCC[C@H](NC(=O)Cn1cc(COC(=O)c2c(O)c(O)cc3occ(-c4cc5cc(O)c(O)cc5oc4=O)c(=O)c23)nn1)C(=O)O` [Example 12, N^2-{[4-({[(6,6′,7,7′-Tetrahydroxy-2,4′-dioxo-2H,4′H-3,3′-bichromen-5′-yl)carbonyl]oxy}methyl)-1H-1,2,3-triazol-1-yl]acetyl}-L-arginine trifluoroacetate], the remaining activity at 1 µM is 65.5%.

Regarding `Cn1c(=O)c(-c2coc3cc(O)c(O)c(C(=O)O)c3c2=O)cc2cc(O)c(O)cc21` [Example 13, 3-(6,7-Dihydroxy-1-methyl-2-oxo-1,2-dihydroquinolin-3-yl)-6,7-dihydroxy-4-oxo-4H-chromene-5-carboxylic acid], the remaining activity at 10 µM was under 70%.

As to `Cn1c(=O)c(-c2coc3cc(O)c(O)c(C(=O)OCc4cn(CC(=O)N[C@@H](CCC(=O)O)C(=O)O)nn4)c3c2=O)cc2cc(O)c(O)cc21` [Example 14, N-({4-[({[3-(6,7-Dihydroxy-1-methyl-2-oxo-1,2-dihydroquinolin-3-yl)-6,7-dihydroxy-4-oxo-4H-chromen-5-yl]carbonyl}oxy)methyl]-1H-1,2,3-triazol-1-yl}acetyl)-L-glutamic acid], the remaining activity at 1 µM is 78.8% and the remaining activity at 3 µM is 6.1%.

Turning to `Cc1c(-c2coc3cc(O)c(O)c(C(=O)OCc4cn(CC(=O)N[C@@H](CCC(=O)O)C(=O)O)nn4)c3c2=O)c(=O)n(C)c2cc(O)c(O)cc12` [Example 15, N-({4-[({[3-(6,7-Dihydroxy-1,4-dimethyl-2-oxo-1,2-dihydroquinolin-3-yl)-6,7-dihydroxy-4-oxo-4H-chromen-5-yl]carbonyl}oxy)methyl]-1H-1,2,3-triazol-1-yl}acetyl)-L-glutamic acid], the remaining activity at 1 µM is 5.4% and the remaining activity at 3 µM was 0%.

With `Cc1nc2cc(O)c(O)cn2c(=O)c1-c1coc2cc(O)c(O)c(C(=O)O)c2c1=O` [Example 16, 3-(7,8-Dihydroxy-2-methyl-4-oxo-4H-pyrido[1,2-a]pyrimidin-3-yl)-6,7-dihydroxy-4-oxo-4H-chromene-5-carboxylic acid], the remaining activity at 1 µM is 15.9% and the remaining activity at 3 µM turned out to be 2.2%.

Regarding `Cc1nc2cc(O)c(O)cn2c(=O)c1-c1coc2cc(O)c(O)c(C(=O)OCc3cn(CC(=O)N[C@@H](CCC(=O)O)C(=O)O)nn3)c2c1=O` [Example 17, N-({4-[({[3-(7,8-Dihydroxy-2-methyl-4-oxo-4H-pyrido[1,2-a]pyrimidin-3-yl)-6,7-dihydroxy-4-oxo-4H-chromen-5-yl]carbonyl}oxy)methyl]-1H-1,2,3-triazol-1-yl}acetyl)-L-glutamic acid], the remaining activity at 1 µM stood at 90.1% and the remaining activity at 3 µM is 3.3%.

For `Cc1nc2cc(O)c(O)cn2c(=O)c1-c1coc2cc(O)c(O)c(C(=O)OCC(=O)N[C@@H](CCC(=O)O)C(=O)O)c2c1=O` [Example 18, N-[({[3-(7,8-Dihydroxy-2-methyl-4-oxo-4H-pyrido[1,2-a]pyrimidin-3-yl)-6,7-dihydroxy-4-oxo-4H-chromen-5-yl]carbonyl}oxy)acetyl]-L-glutamic acid], the remaining activity at 1 µM stood at 21.8% and the remaining activity at 3 µM was found to be 6.7%.

In the case of `Cn1cc(-c2coc3cc(O)c(O)c(C(=O)OCC(O)CO)c3c2=O)c(=O)c2cc(O)c(O)cc21` (stereo not drawn) [Example 23, 2,3-Dihydroxypropyl 3-(6,7-dihydroxy-1-methyl-4-oxo-1,4-dihydroquinolin-3-yl)-6,7-dihydroxy-4-oxo-4H-chromene-5-carboxylate], the remaining activity at 1 µM was under 70% and the remaining activity at 3 µM was under 10%.

For the molecule `Cn1cc(-c2coc3cc(O)c(O)c(C(=O)OC[C@H]4CC[C@H](N)CC4)c3c2=O)c(=O)c2cc(O)c(O)cc21` [Example 24, (trans-4-Aminocyclohexyl)methyl 3-(6,7-dihydroxy-1-methyl-4-oxo-1,4-dihydroquinolin-3-yl)-6,7-dihydroxy-4-oxo-4H-chromene-5-carboxylate hydrochloride], the remaining activity at 1 µM is under 70% and the remaining activity at 3 µM is under 10%.

Regarding `Cn1cc(-c2coc3cc(O)c(O)c(C(=O)OCC[C@H](N)C(=O)O)c3c2=O)c(=O)c2cc(O)c(O)cc21` [Example 27, O-{[3-(6,7-Dihydroxy-1-methyl-4-oxo-1,4-dihydroquinolin-3-yl)-6,7-dihydroxy-4-oxo-4H-chromen-5-yl]carbonyl}-L-homoserine hydrochloride], the remaining activity at 1 µM was under 10% and the remaining activity at 3 µM was under 10%.

Values taken from patent US11440905B2, “Biheterocyclic compound” (SUMITOMO PHARMA CO., LTD., priority 2016, dated 2022).
